{"source": "patent US20260284020A1", "about": "“LATS KINASE INHIBITOR TO TREAT RETINAL DEGENERATION” (Children's Hospital Los Angeles, priority 2023, published 2026)", "key": {"[1]": {"system": "primary human fetal RPE monolayers", "assay": "In vitro wound healing (scratch) assay in RPE monolayers", "format": "cell-based", "details": "for wound healing (wound closure, change in wound area as a percentage): 1 μM, mean±SE", "protocol": "Approximately 72 hours before wound induction, culture media for primary human fetal RPE either remained supplemented with 5% FBS as above (FBS-containing condition) or was replaced with culture media not containing FBS (FBS-free condition). Culture media for iPSC-derived RPE either remained as X-VIVO media as above (FBS-free condition) or was supplemented with 5% FBS (FBS-containing condition).\n(§1) Following 72-hour acclimation period, RPE monolayers were then subjected to a controlled horizontal scratch using the WoundMaker Tool™ (Essen BioScience Ltd., Welwyn Garden City, United Kingdom) according to the protocol provided by the manufacturer. Wells were subsequently washed 1-2 times with their respective media in order to remove cell debris. Cells were then treated with either 1 μM DMSO (as control) or 1 μM TDI-011536 dissolved in either FBS-containing or FBS-free media. To label and track proliferating cells, cells were incubated with 10 μM 5-Ethynyl-2′-deoxyuridine (EdU) for 96 hours.\nEach well was imaged immediately following the scratch injury with a DMI6000B microscope equipped with 10×/0.3 HC PL FLUOTAR Ph1 (Leica Microsystems, Buffalo Grove, IL) and ORCA-Flash4.0 LT camera (Hamamatsu Corp., Bridgewater, NJ). Along the length of each scratch, 2-3 ROIs measuring 1100 μm in length were imaged again 24, 48, 72, and 96 hours after the scratch injury. All ROIs were positioned in the central portion of the scratch. Coordinates of ROIs within each well were stored using Leica Application Suite X software. Non-uniform scratches and/or those with small width or resulting in monolayer detachment were excluded.\nScratch areas in μm^2 for each ROI were obtained using the Wand Tool in QuPath at each time point (e.g., 0, 24, 48, 72, and 96 hours after the scratch). Wound healing was quantified as the difference in scratch area at each time point normalized to (e.g., divided by) the total area immediately post-scratch, expressed as a percentage.\nA wound healing assay, which involves creating a uniform scratch on a confluent monolayer of cells, is a commonly used method to study response to injury in vitro. To assess whether Hippo pathway inhibition promotes RPE regeneration, a wound healing assay was performed on primary human fetal RPE monolayers grown on 96-well plates in various culture conditions. RPE monolayers were subjected to a horizontal scratch and incubated with EdU and either LKI or vehicle. Wound closure was monitored every 24 hours for 96 hours total (FIGS. 1A and 1B)."}, "[2]": {"system": "primary human fetal RPE monolayers", "assay": "In vitro cell proliferation (EdU+ cells) in RPE monolayers", "format": "cell-based", "details": "for percentage of EdU+ cells / EdU+ cells compared to DMSO in the absence of injury (in words): 96 hours; for percentage of EdU+ cells: 1 μM, mean±SE; for EdU+ cells compared to DMSO in the absence of injury (in words): uninjured monolayers", "protocol": "as §1\n(§2) Ninety-six hours after the scratch, cells were immediately fixed with 4% paraformaldehyde (PFA) in phosphate-buffered saline (PBS) for 15 minutes at room temperature (RT). Cells were washed three times with PBS in between each step. Following fixation, cells were blocked and permeabilized with 3% bovine serum albumin (BSA) and 0.1% Triton X-100 in PBS for 2 hours at RT. Cells were then incubated with an EdU reaction cocktail according to the manufacturer's instructions for 30 minutes at RT, protected from light. Then, cells were incubated overnight with primary antibodies diluted in 3% BSA in PBS. The following morning, cells were incubated with secondary antibodies diluted in 3% BSA in PBS for 2 hours at RT, protected from light. Cells were counterstained with DAPI and then washed. A list of reagents and dilutions used can be found in Table 1.\nRegions measuring 800 μm^2 at various distances from the scratch within each well were analyzed. In uninjured wells, three regions were randomly selected within each well. In scratched wells, three regions were centered within the original scratch area (scratch region), which was determined by overlaying the brightfield image taken immediately post-scratch over the fluorescence images 96 hours post-scratch. Another three regions were selected immediately adjacent to the original scratch area but not within it (proximal region). Finally, three additional regions at least 800 μm from the original scratch area were selected (distal region). Apart from scratch regions, only regions that were intact and confluent immediately post-scratch were analyzed. Regions with significant cell loss or those that were otherwise not confluent following the scratch were excluded from analysis.\n(§3) Within each region, cell proliferation was quantified by dividing EdU/DAPI doubly positive cells by the total number of DAPI+ cells, expressed as a percentage. PAX6 expression was quantified as the ratio of PAX6+ nuclei among EdU/DAPI doubly positive nuclei, also expressed as a percentage.\nTo assess the effect of Lats kinase inhibition on cell proliferation in the absence of injury, RPE monolayers were incubated with EdU for 96 hours with the addition of LKI or DMSO. Cell proliferation was quantified as the percentage of EdU+ cells within 3 randomly selected regions within each well.\nTo assess whether Lats kinase inhibition accelerates wound healing via RPE proliferation in vitro, and the mechanism of wound closure with Lats kinase inhibition, RPE monolayers were incubated with EdU following the initial scratch and remained exposed to EdU for 96 hours. At 96 hours, cells were fixed and stained for various cell markers. The percentage of EdU+ cells within scratch, proximal, and distal regions was recorded (FIG. 2A)."}, "[3]": {"system": "primary human fetal RPE monolayers", "assay": "PAX6 / RPE differentiation marker expression of EdU+ RPE cells after scratch", "format": "cell-based", "protocol": "as §2, §3\nIn order to characterize RPE cell fate in response to Lats kinase inhibition in the context of injury, cells were stained with PAX6 and RPE65."}, "RPE monolayers": {"system": "RPE monolayers", "assay": "Toxic effects in vitro", "format": "cell-based, human"}, "Dutch-belted rabbits": {"system": "Dutch-belted rabbits", "assay": "Toxic effects / tolerability of intravitreal injection in vivo", "design": "species or system rabbit", "protocol": "Following the laser procedure, the eyes were anesthetized once more with topical proparacaine. Povidone-iodine was applied to the conjunctiva or sclera using sterile Q-tips. Either 50 μL of 15 mM LATS kinase inhibitor (LKI), or vehicle control, was injected per eye using 1 mL Luer-lock syringe with a 27G 1½ inch needle. The second generation LKI, TDI-011536, was used as a micro-suspension formulation prepared in phosphate buffer solution (PBS; Sigma) supplemented with 0.5% carboxymethyl cellulose (Sigma) and 0.5% Kolliphor P 188 Bio (BASF Pharma). Intravitreal injections containing LKI were administered in the right eye and control injections were administered in the left eye. Injections were administered 1-2 mm posterior to the superotemporal or superonasal limbus and delivery of each compound was confirmed on indirect ophthalmoscopy."}, "Solubility of the drug": {"assay": "Solubility of the drug", "format": "physicochemical"}, "[4]": {"details": "proximal regions, FBS-free media"}, "[5]": {"details": "scratch regions, FBS-free media"}}, "note": "“Also recorded” adds a separate entry of the source. Like-named read-outs stand apart in the source and are kept apart here.", "data": [{"smiles": "O=C(/N=c1\\scc(CO)n1Cc1ccccc1)c1c[nH]c2ncccc12", "note": "[TDI-011536]", "values": [{"measurement": "wound healing (wound closure, change in wound area as a percentage)", "setting": "[1]; 24 hours after scratch, FBS-free media", "result": "25.06±0.96", "unit": "%"}, {"measurement": "difference in wound closure, LKI compared to control", "setting": "[1]; 24 hours, FBS-free media", "result": "8.25±1.49", "unit": "%"}, {"measurement": "wound healing (wound closure, change in wound area as a percentage)", "setting": "[1]; 48 hours after scratch, FBS-free media", "result": "58.72±1.37", "unit": "%"}, {"measurement": "difference in wound closure, LKI compared to control", "setting": "[1]; 48 hours, FBS-free media", "result": "17.53±2.00", "unit": "%"}, {"measurement": "wound healing (wound closure, change in wound area as a percentage)", "setting": "[1]; 72 hours after scratch, FBS-free media", "result": "85.14±1.16", "unit": "%"}, {"measurement": "difference in wound closure, LKI compared to control", "setting": "[1]; 72 hours, FBS-free media", "result": "19.78±1.81", "unit": "%"}, {"measurement": "wound healing (wound closure, change in wound area as a percentage)", "setting": "[1]; 96 hours after scratch, FBS-free media", "result": "91.14±1.17", "unit": "%"}, {"measurement": "difference in wound closure, LKI compared to control", "setting": "[1]; 96 hours, FBS-free media", "result": "14.02±1.85", "unit": "%"}, {"measurement": "wound closure compared to DMSO (in words)", "setting": "[1]; FBS-containing media, all timepoints", "result": "significantly increased wound closure at all timepoints"}, {"measurement": "wound closure compared to control (in words)", "setting": "[1]; FBS-free media, all time points 24-96 hours, listed as LKI", "result": "significantly increased at all time points; also recorded: significantly improved wound closure at all time points"}, {"measurement": "percentage of EdU+ cells in monolayers not subjected to injury (in words)", "setting": "[2]; discussion, media not stated", "result": "only a modest increase"}, {"measurement": "percentage of EdU+ cells", "setting": "[2]; distal regions, FBS-free media", "result": "3.20±0.48", "unit": "%"}, {"measurement": "difference in percentage of EdU+ cells, LKI vs control", "setting": "[2]; distal regions, FBS-free media", "result": "0.91±0.62", "unit": "%"}, {"measurement": "percentage of EdU+ cells compared to control (in words)", "setting": "[2]; distal regions, FBS-free media", "result": "no significant difference"}, {"measurement": "percentage of EdU+ cells", "setting": "[2]; [4]", "result": "10.25±1.30", "unit": "%"}, {"measurement": "difference in percentage of EdU+ cells, LKI vs control", "setting": "[2]; [4]", "result": "7.36±1.38", "unit": "%"}, {"measurement": "percentage of EdU+ cells compared to control (in words)", "setting": "[2]; [4]", "result": "significantly higher percentage of EdU+ cells"}, {"measurement": "percentage of EdU+ cells", "setting": "[2]; [5]", "result": "40.11±2.07", "unit": "%"}, {"measurement": "difference in percentage of EdU+ cells, LKI vs control", "setting": "[2]; [5]", "result": "6.88±2.80", "unit": "%"}, {"measurement": "percentage of EdU+ cells compared to control (in words)", "setting": "[2]; [5]", "result": "significantly higher percentage of EdU+ cells"}, {"measurement": "percentage of EdU+ cells compared to control (in words)", "setting": "[2]; scratched monolayers, FBS-containing media", "result": "significantly higher percentage of EdU+ cells at the scratch site and proximal areas but not distal areas"}, {"measurement": "EdU+ cells compared to DMSO in the absence of injury (in words)", "setting": "[2]; FBS-containing media", "result": "significantly more EdU+ cells"}, {"measurement": "EdU+ cells compared to DMSO in the absence of injury (in words)", "setting": "[2]; FBS-free media", "result": "significantly more EdU+ cells"}, {"measurement": "EdU/PAX6 doubly positive cells in the scratch site, LKI vs control (in words)", "setting": "[3]; 96 hours post-scratch", "result": "no significant difference"}, {"measurement": "EdU+ cells within the original scratch site that expressed PAX6", "setting": "[3]; 96 hours post-scratch, scratch site", "result": "99.67±1.46", "unit": "%"}, {"measurement": "expression of early and late markers of RPE differentiation (in words)", "setting": "[3]; in vitro injury model, after exposure", "result": "nearly all RPE cells expressed both early and late markers of RPE differentiation"}, {"measurement": "toxic effects in vitro", "setting": "RPE monolayers", "result": "No toxic effects"}, {"measurement": "toxic effects in vitro", "setting": "RPE monolayers; listed as LKI", "result": "no toxic effects"}, {"measurement": "tolerability of intravitreal injection", "setting": "Dutch-belted rabbits; animal model", "result": "well-tolerated"}, {"measurement": "toxic effects in vivo", "setting": "Dutch-belted rabbits; rabbit, in vivo", "result": "no toxic effects"}, {"measurement": "solubility (in words)", "setting": "Solubility of the drug", "result": "highly insoluble"}]}]}
